Reference: ChEMBL document CHEMBL4270597, “Donepezil-butylated hydroxytoluene (BHT) hybrids as Anti-Alzheimer's disease agents with cholinergic, antioxidant, and neuroprotective properties” (Eur J Med Chem, 2018)
Calls of active or inactive are those of the source. The calls are words filed in the database; no cut-off is given here.

Columns and labels:
[1] = target: T1, Acetylcholinesterase (Homo sapiens, UniProt P22303); assay: Inhibition of human erythrocyte AChE using acetylthiocholine chloride as substrate incubated for 5 mins followed by substrate addition measured after 180 secs by Ellman's method
[2] = target: T2, Amine oxidase [flavin-containing] A (Homo sapiens, UniProt P21397); assay: Inhibition of human MAO-A using p-tyramine as substrate incubated for 15 mins followed by substrate addition measured for 20 mins by fluorescence assay
T2 sequence (P21397 whole entry): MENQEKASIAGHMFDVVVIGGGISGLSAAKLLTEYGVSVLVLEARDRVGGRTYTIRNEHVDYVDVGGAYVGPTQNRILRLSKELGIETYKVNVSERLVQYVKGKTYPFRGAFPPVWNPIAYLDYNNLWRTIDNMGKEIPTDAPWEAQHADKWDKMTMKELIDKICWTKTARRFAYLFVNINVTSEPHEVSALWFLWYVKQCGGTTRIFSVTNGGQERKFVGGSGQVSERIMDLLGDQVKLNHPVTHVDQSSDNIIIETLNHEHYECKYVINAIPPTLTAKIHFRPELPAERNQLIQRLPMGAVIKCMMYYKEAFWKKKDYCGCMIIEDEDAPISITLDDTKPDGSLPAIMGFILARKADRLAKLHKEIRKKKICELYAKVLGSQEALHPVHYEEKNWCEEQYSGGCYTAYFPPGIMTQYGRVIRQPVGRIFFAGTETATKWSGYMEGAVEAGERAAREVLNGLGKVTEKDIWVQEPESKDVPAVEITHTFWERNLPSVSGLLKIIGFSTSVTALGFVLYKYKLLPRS

[3] = tested on: BV-2; assay: Antineuroinflammatory activity in mouse BV2 cells assessed as inhibition of LPS-induced NO production at 10 to 30 uM after 24 hrs by Griess assay; type: functional, cell-based
[4] = Antioxidant activity assessed as DPPH radical scavenging activity measured after 30 mins incubation in dark by UV-Visible spectrophotometric analysis; type: functional
[5] = target: T1, Acetylcholinesterase; assay: Mixed-type inhibition of human AChE using acetylthiocholine chloride as substrate incubated for 5 mins followed by substrate addition by Lineweaver-Burk plot analysis
[6] = tested on: PC-12; assay: Reversal of H2O2-induced calcium overload in rat PC12 cells after 48 hrs by Fluo-3/AM probe based flow cytometry; type: functional, cell-based
[7] = tested on: Mus musculus; assay: Reversal of scopolamine-induced memory impairment in ICR mouse assessed as increase in step-through latency time administered orally for 10 consecutive days and 60 mins prior to training trial followed by scopolamine challenge at 30 mins post dose measured 24 hrs after training trial by passive avoidance test; type: functional, organism-based
[8] = tested on: PC-12; assay: Neuroprotective activity against H2O2-induced apoptosis in rat PC12 cells assessed as viable cells at 2.5 uM after 24 hrs by Annexin V-FITC/propidium iodide staining-based flow cytometry (reference value: 68.4%); type: functional; conditions: PC-12, 24 h, read-out: Activity
[9] = Effective permeability of the compound at […] after 16 hrs by PAMPA-BBB assay; type: ADME; conditions: read-out: Peff
[10] = tested on: PC-12; assay: Neuroprotective activity against H2O2-induced oxidative stress in rat PC12 cells assessed as increase in cell viability pretreated for 4 hrs followed by H2O2 challenge measured after 24 hrs by MTT assay; type: functional, cell-based
[11] = tested on: PC-12; assay: Neuroprotective activity against H2O2-induced apoptosis in rat PC12 cells assessed as early apoptotic cells at 5 uM after 24 hrs by Annexin V-FITC/propidium iodide staining-based flow cytometry (reference value: 1.4%); type: functional
[12] = tested on: Mus musculus; assay: Toxicity in ICR mouse assessed as emesis at 5 to 10 mg/kg, po administered for 10 consecutive days; type: organism-based; conditions: in vivo
[13] = target: Cholinesterase (Homo sapiens, UniProt P06276); assay: Inhibition of human serum BuChE at 100 uM using butyrylthiocholine iodide as substrate incubated for 5 mins followed by substrate addition measured after 180 secs by Ellman's method relative to control
[14] = tested on: PC-12; assay: Reversal of H2O2-induced calcium overload in rat PC12 cells assessed as mean fluorescence intensity at 5 uM after 48 hrs by Fluo-3/AM probe based flow cytometry (reference value: 454014); type: functional
[15] = tested on: BV-2; assay: Inhibition of LPS-induced intracellular ROS production in mouse BV2 cells assessed as mean fluorescence intensity at 5 uM incubated with LPS for 18 hrs followed by compound addition measured after 36 hrs by DCFH-DA probe based flow cytometry (reference value: 493530); type: functional
[16] = tested on: Mus musculus; assay: Acute toxicity in mouse assessed as abnormal changes in liver at 2000 mg/kg, po measured continuously for first 4 hrs and intermittently for next 24 hrs and occasionally for 14 days by hematoxylin and eosin staining based microscopic method; type: organism-based; conditions: in vivo
[17] = tested on: PC-12; assay: Neuroprotective activity against H2O2-induced apoptosis in rat PC12 cells assessed as necrotic cells at 10 uM after 24 hrs by Annexin V-FITC/propidium iodide staining-based flow cytometry (reference value: 4.9%); type: functional
[18] = tested on: PC-12; assay: Neuroprotective activity against H2O2-induced apoptosis in rat PC12 cells assessed as late apoptotic cells at 5 uM after 24 hrs by Annexin V-FITC/propidium iodide staining-based flow cytometry (reference value: 25.3%); type: functional
[19] = Antioxidant activity assessed as trolox equivalent of AAPH-induced radical scavenging activity preincubated for 15 mins followed by AAPH addition measured every minute for 120 mins by ORAC-FL based fluorescein assay; type: functional
[20] = tested on: PC-12; assay: Reversal of H2O2-induced calcium overload in rat PC12 cells assessed as mean fluorescence intensity at 2.5 uM after 48 hrs by Fluo-3/AM probe based flow cytometry (reference value: 454014); type: functional
[21] = tested on: BV-2; assay: Inhibition of LPS-induced intracellular ROS production in mouse BV2 cells assessed as mean fluorescence intensity incubated with LPS for 18 hrs followed by compound addition measured after 36 hrs by DCFH-DA probe based flow cytometry; type: functional, cell-based
[22] = tested on: Mus musculus; assay: Acute toxicity in mouse assessed as abnormal changes in kidney at 2000 mg/kg, po measured continuously for first 4 hrs and intermittently for next 24 hrs and occasionally for 14 days by hematoxylin and eosin staining based microscopic method; type: organism-based; conditions: in vivo
[23] = target: Amyloid-beta precursor protein (Homo sapiens) (UniProt P05067); assay: Inhibition of AChE-induced amyloid beta 40 (unknown origin) aggregation at 100 uM by thioflavin-T fluorescence assay relative to control
[24] = tested on: PC-12; assay: Neuroprotective activity against H2O2-induced apoptosis in rat PC12 cells assessed as late apoptotic cells at 10 uM after 24 hrs by Annexin V-FITC/propidium iodide staining-based flow cytometry (reference value: 25.3%); type: functional
[25] = tested on: PC-12; assay: Neuroprotective activity against H2O2-induced apoptosis in rat PC12 cells assessed as early apoptotic cells at 10 uM after 24 hrs by Annexin V-FITC/propidium iodide staining-based flow cytometry (reference value: 1.4%); type: functional
[26] = species: Homo sapiens; assay: Selectivity index, ratio of IC50 for human serum BuChE to IC50 for human erythrocyte AChE
[27] = tested on: PC-12; assay: Neuroprotective activity against H2O2-induced apoptosis in rat PC12 cells assessed as necrotic cells at 2.5 uM after 24 hrs by Annexin V-FITC/propidium iodide staining-based flow cytometry (reference value: 4.9%); type: functional
[28] = tested on: PC-12; assay: Neuroprotective activity against H2O2-induced apoptosis in rat PC12 cells assessed as late apoptotic cells at 2.5 uM after 24 hrs by Annexin V-FITC/propidium iodide staining-based flow cytometry (reference value: 25.3%); type: functional
[29] = target: Amyloid-beta precursor protein (Homo sapiens) (UniProt P05067); assay: Inhibition of self-induced amyloid beta 42 (unknown origin) aggregation at 20 uM incubated for 46 to 48 hrs by thioflavin-T fluorescence assay relative to control

Amyloid-beta precursor protein (Homo sapiens), sequence (P05067 whole entry): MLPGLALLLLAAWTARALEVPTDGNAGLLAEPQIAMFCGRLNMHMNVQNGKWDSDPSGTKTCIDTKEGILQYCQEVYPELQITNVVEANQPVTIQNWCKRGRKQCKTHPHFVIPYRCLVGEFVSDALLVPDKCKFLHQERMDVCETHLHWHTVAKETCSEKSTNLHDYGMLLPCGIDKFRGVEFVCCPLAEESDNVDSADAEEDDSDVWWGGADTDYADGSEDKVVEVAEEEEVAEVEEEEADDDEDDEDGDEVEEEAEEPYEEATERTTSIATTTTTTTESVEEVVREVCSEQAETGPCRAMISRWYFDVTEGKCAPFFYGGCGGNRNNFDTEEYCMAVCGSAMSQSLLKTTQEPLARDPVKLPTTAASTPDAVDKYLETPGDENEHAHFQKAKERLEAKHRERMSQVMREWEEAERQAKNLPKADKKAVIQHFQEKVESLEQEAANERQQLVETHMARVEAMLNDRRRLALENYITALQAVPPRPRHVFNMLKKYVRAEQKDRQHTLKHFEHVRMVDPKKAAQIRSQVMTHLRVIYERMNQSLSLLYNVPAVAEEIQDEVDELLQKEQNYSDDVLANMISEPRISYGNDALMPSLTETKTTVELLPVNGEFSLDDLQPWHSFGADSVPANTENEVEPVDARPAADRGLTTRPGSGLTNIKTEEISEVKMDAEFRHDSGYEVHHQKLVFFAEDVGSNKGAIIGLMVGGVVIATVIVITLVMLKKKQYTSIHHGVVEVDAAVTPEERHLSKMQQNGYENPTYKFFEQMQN
T1 sequence (P22303 whole entry): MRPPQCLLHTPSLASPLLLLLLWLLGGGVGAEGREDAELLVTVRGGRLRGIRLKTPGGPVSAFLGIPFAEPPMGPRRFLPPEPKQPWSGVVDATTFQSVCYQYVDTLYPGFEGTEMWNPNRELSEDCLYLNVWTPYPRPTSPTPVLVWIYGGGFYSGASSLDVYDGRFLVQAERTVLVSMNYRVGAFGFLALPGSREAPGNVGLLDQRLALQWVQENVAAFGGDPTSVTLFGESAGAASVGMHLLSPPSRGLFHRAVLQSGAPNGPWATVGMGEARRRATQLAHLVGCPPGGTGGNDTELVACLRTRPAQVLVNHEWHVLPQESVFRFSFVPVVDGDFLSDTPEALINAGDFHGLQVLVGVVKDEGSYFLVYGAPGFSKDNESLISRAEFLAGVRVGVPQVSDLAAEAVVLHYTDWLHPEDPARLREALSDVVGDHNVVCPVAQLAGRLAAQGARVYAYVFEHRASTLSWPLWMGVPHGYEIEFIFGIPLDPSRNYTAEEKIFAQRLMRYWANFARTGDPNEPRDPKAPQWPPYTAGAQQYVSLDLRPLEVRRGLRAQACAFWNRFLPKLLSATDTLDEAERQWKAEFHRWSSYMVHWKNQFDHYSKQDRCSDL
Cholinesterase, sequence (P06276 whole entry): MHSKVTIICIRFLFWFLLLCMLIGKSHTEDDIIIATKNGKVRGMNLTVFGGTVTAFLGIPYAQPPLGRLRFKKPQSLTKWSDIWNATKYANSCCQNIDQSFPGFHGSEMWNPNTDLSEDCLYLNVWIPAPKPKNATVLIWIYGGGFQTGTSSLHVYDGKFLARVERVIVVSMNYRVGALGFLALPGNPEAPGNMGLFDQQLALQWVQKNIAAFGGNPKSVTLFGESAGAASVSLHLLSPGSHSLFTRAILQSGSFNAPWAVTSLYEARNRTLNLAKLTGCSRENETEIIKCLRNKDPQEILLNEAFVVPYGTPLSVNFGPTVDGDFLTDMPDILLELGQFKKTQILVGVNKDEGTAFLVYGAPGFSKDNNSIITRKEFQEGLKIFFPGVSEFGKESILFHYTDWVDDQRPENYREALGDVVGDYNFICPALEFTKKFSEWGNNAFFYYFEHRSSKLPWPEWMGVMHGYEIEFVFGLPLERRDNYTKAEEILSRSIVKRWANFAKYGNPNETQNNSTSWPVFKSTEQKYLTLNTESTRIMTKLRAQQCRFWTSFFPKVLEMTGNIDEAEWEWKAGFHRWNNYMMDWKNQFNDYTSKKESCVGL

SMILES: CC(C)(C)c1cc(/C=C/C(=O)NCCC2CCN(Cc3ccccc3F)CC2)cc(C(C)(C)C)c1O
- IC50 [1]: 0.75 µM
- IC50 [2]: 60.2 µM
- inhibition [3]: Active
- IC50 [4]: 55.9 µM
- Ki [5]: 1.4 µM
- Activity [6]: Dose-dependent effect
- Activity [7]: Dose-dependent effect
- viability at 2.5 µM [8]: 81.5%
- Papp at 16 h [9]: 5.5 ×10⁻⁶ cm/s
- Activity [10]: Dose-dependent effect
- Activity [11]: 0.3%
- Activity [12]: Non-Toxic
- inhibition [13]: 38.4%
- Flu intensity [14]: 251576
- Flu intensity [15]: 479700
- Activity [16]: Non-Toxic
- Activity [17]: 1.6%
- Activity [18]: 9%
- Activity (mmolequiv/mmol) [19]: 1.64
- Flu intensity [20]: 347633
- inhibition [21]: Dose-dependent effect
- Activity [22]: Non-Toxic
- inhibition [23]: 40.1%
- Activity [24]: 5.7%
- Activity [25]: 0.3%
- Ratio IC50 [26]: > 133
- Activity [27]: 3.5%
- Activity [28]: 14.8%
- inhibition [29]: 43.5 to 56.7%
